# Assay results taken from patent publication US20250121013A1, “USE OF BACILLUS AMYLOLIQUEFACIENS FOR PREVENTING AND TREATING PARKINSON'S DISEASE” (Artugen Therapeutics Ltd., priority 2021, published 2025).
# Tests used:
# ART24 [1] = experiment: Antibiotic susceptibility of ART24, MIC, VetMIC panels (Table 2); assay type: cell-based, Bacillus amyloliquefaciens; conditions: for MIC: Bacillus amyloliquefaciens, read-out: ART24 MIC
# Procedure: The minimum inhibitory concentration (MIC) of the listed antimicrobials is expressed as μg/mL. […] The wells of the prefabricated 96-well plates were filled with 100 μL of the final suspension. The plates were sealed with an […], Sigma Aldrich) sealing film (to facilitate growth of the aerobic Bacillus. The plates were then incubated for 24 hr at 37° C. The results are recorded after 24 hours as the lowest concentration of the antibiotic to inhibit visible growth. The prefabricated panels […], Uppsala, Sweden) comprising the antibiotics ampicillin, vancomycin, gentamicin, kanamycin, streptomycin, erythromycin, clindamycin, tetracycline, chloramphenicol, neomycin, penicillin, quinupristin-dalfopristin, linezolid, trimethoprim, ciprofloxacin and rifampicin were used.
# ART24 [2] = experiment: Antibiotic susceptibility of ART24 lots and cell banks, MIC following EFSA testing recommendations (Table 3); assay type: cell-based, Bacillus amyloliquefaciens; conditions: for MIC: Bacillus amyloliquefaciens
# Procedure: The minimum inhibitory concentration (MIC) of the listed antimicrobials is expressed as μg/mL. Additional studies following EFSA testing recommendations were performed on lyophilized ART24 lots CO-33-10A2 and CO-33-12A2 and Research and Master Cell Banks CO-33-ART24 BHI and CO-33-ART24 SYD, and those results are shown in Table 3.
# [3] = ART24 source: cell bank CO-33 ART 24 BHI
# [4] = ART24 source: cell bank CO-33 ART 024 SYD
# [5] = ART24 source: lyophilized lot CO-33-10A2
# [6] = ART24 source: lyophilized lot CO-33-12A2
# [7] = 24 hr at 37° C., average results from N = 6
# [8] = ART24 source: cell bank CO-33 ART 24 BHI, read-out: MIC, CO-33 ART 24 BHI
# [9] = ART24 source: cell bank CO-33 ART 024 SYD, read-out: MIC, CO-33 ART 024 SYD
# [10] = ART24 source: lyophilized lot CO-33-10A2, read-out: MIC, CO-33-10A2
# [11] = ART24 source: lyophilized lot CO-33-12A2, read-out: MIC, CO-33-12A2
Compound,"MIC interpretation, CO-33 ART 24 BHI (ART24 [2]; [3])","MIC interpretation, CO-33 ART 024 SYD (ART24 [2]; [4])","MIC interpretation, CO-33-10A2 (ART24 [2]; [5])","MIC interpretation, CO-33-12A2 (ART24 [2]; [6])",MIC (ART24 [1]; [7]) [µg/mL],MIC (ART24 [2]; [8]) [µg/mL],MIC (ART24 [2]; [9]) [µg/mL],MIC (ART24 [2]; [10]) [µg/mL],MIC (ART24 [2]; [11]) [µg/mL],other results
CN[C@H](CC(C)C)C(=O)N[C@H]1C(=O)N[C@@H](CC(N)=O)C(=O)N[C@H]2C(=O)N[C@H]3C(=O)N[C@H](C(=O)N[C@H](C(=O)O)c4cc(O)cc(O)c4-c4cc3ccc4O)[C@H](O)c3ccc(c(Cl)c3)Oc3cc2cc(c3O[C@@H]2O[C@H](CO)[C@@H](O)[C@H](O)[C@H]2O[C@H]2C[C@](C)(N)[C@H](O)[C@H](C)O2)Oc2ccc(cc2Cl)[C@H]1O [Vancomycin],S,S,S,S,–,–,–,–,–,"MIC (ART24 [1]; 24 h): 0.5 to 1 µg/mL; MIC (ART24 [2]; read-out: MIC, CO-33-10A2): ≤ 0.25 µg/mL; MIC (ART24 [2]; read-out: MIC, CO-33-12A2): ≤ 0.25 µg/mL; MIC (ART24 [2]; read-out: MIC, CO-33 ART 24 BHI): 0.5 µg/mL; MIC (ART24 [2]; read-out: MIC, CO-33 ART 024 SYD): ≤ 0.25 µg/mL"
[H]/N=C(/N)N[C@H]1[C@H](O)[C@@H](O)[C@H](O[C@@H]2O[C@@H](C)[C@](O)(C=O)[C@H]2O[C@@H]2O[C@@H](CO)[C@H](O)[C@@H](O)[C@@H]2NC)[C@@H](N/C(N)=N\[H])[C@@H]1O [Streptomycin],S,S,S,S,4,1,2,1,1,–
Quinupristin-dalfopristin,–,–,–,–,–,–,–,–,–,"ART24 MIC (ART24 [1]; [7]): 4 µg/mL; MIC, CO-33 ART 24 BHI (ART24 [2]; [3]): 2 µg/mL; MIC, CO-33 ART 024 SYD (ART24 [2]; [4]): 2 µg/mL; MIC, CO-33-10A2 (ART24 [2]; [5]): 1 µg/mL; MIC, CO-33-12A2 (ART24 [2]; [6]): 2 µg/mL"
CC(=O)NC[C@H]1CN(c2ccc(N3CCOCC3)c(F)c2)C(=O)O1 [Linezolid],–,–,–,–,0.5,0.5,0.5,0.25,0.5,–
Penicillin,S,S,S,S,–,–,–,–,–,"ART24 MIC (ART24 [1]; [7]): 0.12 to 0.5 µg/mL; MIC, CO-33 ART 24 BHI (ART24 [2]; [3]): ≤ 0.03 µg/mL; MIC, CO-33 ART 024 SYD (ART24 [2]; [4]): 0.06 µg/mL; MIC, CO-33-10A2 (ART24 [2]; [5]): ≤ 0.03 µg/mL; MIC, CO-33-12A2 (ART24 [2]; [6]): ≤ 0.03 µg/mL"
CN(C)[C@@H]1C(O)=C(C(N)=O)C(=O)[C@@]2(O)C(O)=C3C(=O)c4c(O)cccc4[C@@](C)(O)[C@H]3C[C@@H]12 [Tetracycline],S,S,S,S,4,2,2,2,2,–
NC[C@H]1O[C@H](O[C@H]2[C@H](O)[C@@H](O[C@H]3O[C@H](CO)[C@@H](O)[C@H](N)[C@H]3O)[C@H](N)C[C@@H]2N)[C@H](O)[C@@H](O)[C@@H]1O [Kanamycin],S,S,S,S,≤ 2,≤ 0.5,≤ 0.5,≤ 0.5,≤ 0.5,–
O=C(N[C@H](CO)[C@H](O)c1ccc([N+](=O)[O-])cc1)C(Cl)Cl [Chloramphenicol],S,S,S,S,4,2,2,2,2,–
COc1cc(Cc2cnc(N)nc2N)cc(OC)c1OC [Trimethoprim],–,–,–,–,≤ 0.12,≤ 0.25,≤ 0.25,≤ 0.25,≤ 0.25,–
Gentamicin,S,S,S,S,–,–,–,–,–,"ART24 MIC (ART24 [1]; [7]): ≤0.5 µg/mL; MIC, CO-33 ART 24 BHI (ART24 [2]; [3]): ≤ 0.06 µg/mL; MIC, CO-33 ART 024 SYD (ART24 [2]; [4]): ≤ 0.06 µg/mL; MIC, CO-33-10A2 (ART24 [2]; [5]): ≤ 0.06 µg/mL; MIC, CO-33-12A2 (ART24 [2]; [6]): ≤ 0.06 µg/mL"
CCc1c(Cl)c(O)c(Cl)c(O)c1C(=O)O[C@H]1[C@H](O)[C@H](OC)[C@H](OC/C2=C\C=C\C[C@H](O)/C(C)=C/[C@H](CC)[C@@H](O[C@@H]3OC(C)(C)[C@@H](OC(=O)C(C)C)[C@H](O)[C@@H]3O)/C(C)=C/C(C)=C/C[C@@H]([C@@H](C)O)OC2=O)O[C@@H]1C [Fidaxomicin],–,–,–,–,–,4,4,2,4,–
CCC[C@@H]1C[C@@H](C(=O)N[C@@H]([C@H]2O[C@H](SC)[C@H](O)[C@@H](O)[C@H]2O)[C@H](C)Cl)N(C)C1 [Clindamycin],S,S,S,S,0.5 to 1,0.25,0.25,0.12,0.25,–
Cc1ncc([N+](=O)[O-])n1CCO [Metronidazole],–,–,–,–,–,–,–,–,–,"MIC (ART24 [2]; aerobic, ART24 source CO-33-10A2, read-out: MIC, CO-33-10A2 (aerobic)): > 64 µg/mL; MIC (ART24 [2]; aerobic, ART24 source CO-33-12A2, read-out: MIC, CO-33-12A2 (aerobic)): > 64 µg/mL; MIC (ART24 [2]; aerobic, ART24 source CO-33 ART 24 BHI, read-out: MIC, CO-33 ART 24 BHI (aerobic)): > 64 µg/mL; MIC (ART24 [2]; aerobic, ART24 source CO-33 ART 024 SYD, read-out: MIC, CO-33 ART 024 SYD (aerobic)): > 64 µg/mL; MIC (ART24 [2]; anaerobic, ART24 source CO-33-10A2, read-out: MIC, CO-33-10A2 (anaerobic)): 64 µg/mL; MIC (ART24 [2]; anaerobic, ART24 source CO-33-12A2, read-out: MIC, CO-33-12A2 (anaerobic)): 64 µg/mL; MIC (ART24 [2]; anaerobic, ART24 source CO-33 ART 24 BHI, read-out: MIC, CO-33 ART 24 BHI (anaerobic)): 64 µg/mL; MIC (ART24 [2]; anaerobic, ART24 source CO-33 ART 024 SYD, read-out: MIC, CO-33 ART 024 SYD (anaerobic)): 64 µg/mL"
CO[C@H]1/C=C/O[C@@]2(C)Oc3c(C)c(O)c4c(O)c(c(/C=N/N5CCN(C)CC5)c(O)c4c3C2=O)NC(=O)/C(C)=C\C=C\[C@H](C)[C@H](O)[C@@H](C)[C@@H](O)[C@@H](C)[C@H](OC(C)=O)[C@@H]1C [Rifampicin],S,S,S,S,0.5,0.25,0.25,0.25,0.25,–
CC[C@H]1OC(=O)[C@H](C)[C@@H](O[C@H]2C[C@@](C)(OC)[C@@H](O)[C@H](C)O2)[C@H](C)[C@@H](O[C@@H]2O[C@H](C)C[C@H](N(C)C)[C@H]2O)[C@](C)(O)C[C@@H](C)C(=O)[C@H](C)[C@@H](O)[C@]1(C)O [Erythromycin],S,S,S,S,0.12,0.12,0.12,0.06,0.06,–
CC1(C)S[C@@H]2[C@H](NC(=O)[C@H](N)c3ccccc3)C(=O)N2[C@H]1C(=O)O [Ampicillin],S,S,S,S,0.25,≤ 0.03,≤ 0.03,≤ 0.03,≤ 0.03,–
Neomycin,–,–,–,–,–,–,–,–,–,"ART24 MIC (ART24 [1]; [7]): ≤0.5 µg/mL; MIC, CO-33 ART 24 BHI (ART24 [2]; [3]): ≤0.12 µg/mL; MIC, CO-33 ART 024 SYD (ART24 [2]; [4]): ≤0.12 µg/mL; MIC, CO-33-10A2 (ART24 [2]; [5]): ≤0.12 µg/mL; MIC, CO-33-12A2 (ART24 [2]; [6]): ≤0.12 µg/mL"
O=C(O)c1cn(C2CC2)c2cc(N3CCNCC3)c(F)cc2c1=O [Ciprofloxacin],S,S,S,S,≤ 0.25,≤ 0.03,≤ 0.03,≤ 0.03,≤ 0.03,–
